Test system: ovariectomized rats
Test: Uterine wet weight of ovariectomized rats
Type: in vivo, Sprague-Dawley female rats
Details: OVX rats; compound 1a 0.003-3 mg/kg; 17α-ethynyl estradiol 0.1 mg/kg
Description: Following treatment with the test compounds, the rats were anesthetized and subjected to cardiac puncture and euthanized by CO2 inhalation. Uteri were removed and wet weight were determined on a Mettler balance to evaluate ovariectomy and efficacy of treatment with estrogen. Blood samples were allowed to clot at 4° C. for 2 hr before centrifugation at 2,000 g for 10 min. Serum were collected and stored at −70° C. before analysis. Serum cholesterol was assayed using a high performance calorimetric assay (Boehringer Mannheim Biochemicals, Indianapolis, Ind.). Tibia and femora were removed, cleaned of soft-tissue, fixed in 50% ethanol/ saline, and stored at 4° C. Vertebra L1-6 were removed and analyzed by QCT, histomorphometry, and biomechanics.
In the first study, six-month old virgin Sprague-Dawley female rats weighing about 300 g each were maintained on a 12 hr light/12 hr dark cycle at 22° C. with ad lib access to food (TD 89222 diet containing 0.5% calcium and 0.4% phosphorus, Teklad, Madison, Wis., USA), Except for sham-operated control animals, bilateral ovariectomies were performed on the test animals. In the case of the sham-operated animals, the surgical ovariectomization technique was followed, but the ovaries were left intact to provide a control for assessing any effect which might be due to the surgical trauma. […]

Q: Which uterine wet weight does the source give for `C#C[C@]1(O)CC[C@H]2[C@@H]3CCc4cc(O)ccc4[C@H]3CC[C@@]21C` [EE2, 17α-ethynyl estradiol] here?
A: increased uterine weight above OVX to Sham levels

— patent publication US20020025929A1, “METHOD OF BUILDING AND MAINTAINING BONE” (priority 1997, published 2002)
